# Results reported in ChEMBL document CHEMBL1147074, “Reevaluation of telomerase inhibition by quadruplex ligands and their mechanisms of action” (Proc Natl Acad Sci U S A, 2007).
# Calls of active or inactive are those of the source. No cut-off for these calls is given here.
# Legend:
# [1] = biological target: T1, Telomerase reverse transcriptase (Homo sapiens, UniProt O14746); test: Inhibition of human telomerase expressed in HEK293T cells in presence of primer (T2AG3)3 by primer extension assay; format: cell-based; conditions: hek-293t
# [2] = biological target: T1, Telomerase reverse transcriptase; test: Inhibition of human telomerase expressed in HEK293T cells treated before telomerase elongation by telomeric repeat amplification protocol assay; format: cell-based; conditions: hek-293t
# [3] = biological target: T1, Telomerase reverse transcriptase; test: Decrease in telomerase processivity assessed as decrease in telomerase elongation in presence of Telo3R primer by primer extension assay
# [4] = biological target: T1, Telomerase reverse transcriptase; test: Inhibition of human telomerase expressed in HEK293T cells in presence of primer TS by primer extension assay; format: cell-based; conditions: hek-293t
# [5] = biological target: T1, Telomerase reverse transcriptase; test: Inhibition of human telomerase expressed in HEK293T cells in presence of primer (T2AG3)4 by primer extension assay; format: cell-based; conditions: hek-293t
# T1 sequence (O14746 whole entry): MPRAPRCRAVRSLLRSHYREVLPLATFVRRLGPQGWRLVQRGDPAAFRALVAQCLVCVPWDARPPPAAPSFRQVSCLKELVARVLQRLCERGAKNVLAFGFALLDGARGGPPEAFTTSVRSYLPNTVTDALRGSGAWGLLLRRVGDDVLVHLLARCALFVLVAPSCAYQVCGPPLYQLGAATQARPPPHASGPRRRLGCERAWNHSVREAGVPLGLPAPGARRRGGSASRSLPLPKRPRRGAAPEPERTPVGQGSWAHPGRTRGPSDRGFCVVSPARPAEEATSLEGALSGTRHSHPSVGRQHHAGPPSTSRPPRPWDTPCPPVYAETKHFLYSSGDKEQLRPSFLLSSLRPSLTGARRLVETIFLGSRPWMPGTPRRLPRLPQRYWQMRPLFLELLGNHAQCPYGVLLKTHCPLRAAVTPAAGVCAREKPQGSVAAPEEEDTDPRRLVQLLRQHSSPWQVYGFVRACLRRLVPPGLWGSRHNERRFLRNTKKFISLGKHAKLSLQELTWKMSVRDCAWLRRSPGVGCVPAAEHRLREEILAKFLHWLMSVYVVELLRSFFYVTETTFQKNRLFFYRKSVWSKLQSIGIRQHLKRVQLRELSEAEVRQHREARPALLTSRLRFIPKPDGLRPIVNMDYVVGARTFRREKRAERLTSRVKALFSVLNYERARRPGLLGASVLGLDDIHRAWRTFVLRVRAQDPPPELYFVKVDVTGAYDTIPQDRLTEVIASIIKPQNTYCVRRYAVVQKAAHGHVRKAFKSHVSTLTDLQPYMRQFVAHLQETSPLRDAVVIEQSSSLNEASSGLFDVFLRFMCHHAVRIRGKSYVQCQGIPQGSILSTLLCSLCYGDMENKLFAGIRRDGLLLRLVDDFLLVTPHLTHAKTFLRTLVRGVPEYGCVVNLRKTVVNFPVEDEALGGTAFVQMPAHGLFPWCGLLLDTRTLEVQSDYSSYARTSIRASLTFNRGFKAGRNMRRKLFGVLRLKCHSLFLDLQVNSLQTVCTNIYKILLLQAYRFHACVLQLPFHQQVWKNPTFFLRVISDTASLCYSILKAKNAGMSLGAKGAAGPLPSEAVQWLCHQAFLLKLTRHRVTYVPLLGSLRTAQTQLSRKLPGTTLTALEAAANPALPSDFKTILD
IC50 [1],IC50 [2],Activity [3],IC50 [4],IC50 [5],Structure (SMILES)
830 nM,45 nM,inactive,,,CN(C)c1ccc(Nc2c3ccc(NC(=O)CCN4CCCC4)cc3nc3cc(NC(=O)CCN4CCCC4)ccc23)cc1
,,Active,,,C[n+]1cc(NC(=O)c2ccc3ccc4ccc(C(=O)Nc5cc6ccccc6[n+](C)c5)nc4c3n2)cc2ccccc21
,,Active,,,C[n+]1cc(NC(=O)c2cccc(C(=O)Nc3cc4ccccc4[n+](C)c3)n2)cc2ccccc21
900 nM,0.64 nM,inactive,1150 nM,58 nM,Cc1oc2nc1-c1nc(co1)-c1nc(co1)-c1nc(co1)-c1nc(co1)-c1nc(co1)C1=NC(CS1)c1nc-2c(C)o1 (stereo not drawn) [TELOMESTATIN]

Structure (SMILES),IC50 [1],IC50 [2],Activity [3],IC50 [4],IC50 [5]
C[n+]1ccc(-c2c3nc(c(-c4cc[n+](C)cc4)c4ccc([nH]4)c(-c4cc[n+](C)cc4)c4ccc([nH]4)c(-c4cc[n+](C)cc4)c4nc2C=C4)C=C3)cc1,,,inactive,,
C[n+]1ccc(-c2c3nc(c(-c4cc[n+](C)cc4)c4ccc([nH]4)c(-c4cc[n+](C)cc4)c4nc(c(-c5cc[n+](C)cc5)c5ccc2[nH]5)C=C4)C=C3)cc1 [TMPYP4],710 nM,550 nM,,,
